Laboratory results: publication PMC5118987 (Antimicrobial Agents and Chemotherapy, 2016)
Read-outs that look alike come from different tables or passages of the source.

What was measured:
[1] = test system: inhibitor-selected HIV-1 IIIb passages; assay: Phenotypic profile of selected HIV-1 passages; assay type: cell-based; conditions: for EC50: Human immunodeficiency virus 1, IIIB
HIV-1 clonal variants = assay: PhenoSense integrase assay, clonal variants from EVG/COBI/FTC/TDF virologic failures; assay type: cell-based
From the text: Clonal Analysis of HIV-1 from Patients. Plasma from 16 patients treated in Studies GS-US-236-0102 and GS-US-236-0103 with confirmed virologic failure and resistance development in the HIV-1 integrase gene were sent to Monogram Biosciences (South San Francisco, CA) for clonal analysis. The HIV-1 RNA was isolated and the cDNA was synthesized using Monogram proprietary primers. Using proprietary primers, PCR amplification of the entire protease, reverse transcriptase, and integrase coding regions of the pol gene were performed. PCR products were inserted into T/A cloning vectors.
Approximately 20 clones were chosen per patient sample for sequencing using proprietary primers. A subset of clones was chosen for phenotypic analysis based on the presence of INSTI resistance mutations. Resistance test vectors containing the patient-derived integrase coding region from selected clones were constructed using standard Monogram Biosciences protocols. […]
values) in these clones were obtained through a contract study by Monogram Biosciences using the PhenoSense integrase assay. The fold-change from the NL4-3 wild-type reference vector values was determined.

HIV-1 BaL = conditions: primary CD4+ T-cells, 35 days, drug at tissue culture equivalent clinical Cmin (FTC 160 × EC50)
[2] = test system: INSTI-resistant HIV-1 mutants (HXB2); assay: microbe, parasite or virus in culture; assay type: cell-based

Cc1nnc(C(=O)NC(C)(C)c2nc(C(=O)NCc3ccc(F)cc3)c(O)c(=O)n2C)o1 [RAL, raltegravir]
Fold-Resistance Relative to HIV-1 IIIb ([1]; HIV-1-IIIb (reference)): 1 fold | EC50 ([1]; 480 h, selected virus EVG P2 (day 20, 7.2 nM)): 25.9 nM | EC50 ([1]; HIV-1-IIIb (unselected)): 8.8 nM | EC50 ([1]; selected virus BIC P3 (day 47, 6 nM)): 18.1 nM | EC50 ([1]; selected virus BIC P5 (day 71, 12 nM)): 18.3 nM | EC50 ([1]; selected virus BIC P6 (day 86, 24 nM)): 24.4 nM | EC50 ([1]; selected virus BIC P8 (day 156, 96 nM)): 28.8 nM | EC50 ([1]; selected virus BIC P9 (day 181, 192 nM)): 41.7 nM | EC50 ([1]; selected virus BIC P10 (day 234, 384 nM)): 29.3 nM | EC50 ([1]; selected virus DTG P3Lo (day 59, 6.4 nM)): 11.8 nM | EC50 ([1]; selected virus DTG P4 (day 87, 9.6 nM)): 23.2 nM | EC50 ([1]; selected virus DTG P5 (day 97, 14.4 nM)): 28 nM | EC50 ([1]; selected virus DTG P7 (day 139, 32.4 nM)): 39.7 nM | EC50 ([1]; selected virus DTG P9 (day 174, 72.9 nM)): 43 nM | EC50 ([1]; selected virus DTG P10 (day 202, 109.4 nM)): 56.9 nM | EC50 ([1]; selected virus EVG P4 (day 41, 28.8 nM)): 26.9 nM | EC50 ([1]; selected virus EVG P6 (day 56, 115 nM)): 19.9 nM | EC50 ([1]; selected virus EVG P7 (day 67, 230 nM)): 28.7 nM | EC50 ([1]; selected virus EVG P9 (day 94, 922 nM)): 44.9 nM | EC50 ([1]; selected virus EVG P10 (day 119, 1843 nM)): 17 nM | Fold-Resistance Relative to HIV-1 IIIb ([1]; selected virus BIC P3): 2 fold | Fold-Resistance Relative to HIV-1 IIIb ([1]; selected virus BIC P5): 2.1 fold | Fold-Resistance Relative to HIV-1 IIIb ([1]; selected virus BIC P6): 2.8 fold | Fold-Resistance Relative to HIV-1 IIIb ([1]; selected virus BIC P8): 3.3 fold | Fold-Resistance Relative to HIV-1 IIIb ([1]; selected virus BIC P9): 4.7 fold | Fold-Resistance Relative to HIV-1 IIIb ([1]; selected virus BIC P10): 3.3 fold | Fold-Resistance Relative to HIV-1 IIIb ([1]; selected virus DTG P3Lo): 1.3 fold | Fold-Resistance Relative to HIV-1 IIIb ([1]; selected virus DTG P4): 2.6 fold | Fold-Resistance Relative to HIV-1 IIIb ([1]; selected virus DTG P5): 3.2 fold | Fold-Resistance Relative to HIV-1 IIIb ([1]; selected virus DTG P7): 4.5 fold | Fold-Resistance Relative to HIV-1 IIIb ([1]; selected virus DTG P9): 4.9 fold | Fold-Resistance Relative to HIV-1 IIIb ([1]; selected virus DTG P10): 6.4 fold | Fold-Resistance Relative to HIV-1 IIIb ([1]; selected virus EVG P2): 2.9 fold | Fold-Resistance Relative to HIV-1 IIIb ([1]; selected virus EVG P4): 3.0 fold | Fold-Resistance Relative to HIV-1 IIIb ([1]; selected virus EVG P6): 2.3 fold | Fold-Resistance Relative to HIV-1 IIIb ([1]; selected virus EVG P7): 3.3 fold | Fold-Resistance Relative to HIV-1 IIIb ([1]; selected virus EVG P9): 5.1 fold | Fold-Resistance Relative to HIV-1 IIIb ([1]; selected virus EVG P10): 1.9 fold | Susceptibility (Fold-change vs. WT) (HIV-1 clonal variants; clone 6041-11: E92Q): 3.67 fold-change | Susceptibility (Fold-change vs. WT) (HIV-1 clonal variants; clone 6101-12: Q148R): 32 fold-change | Susceptibility (Fold-change vs. WT) (HIV-1 clonal variants; clone 6101-14: N155H): 6.56 fold-change | Susceptibility (Fold-change vs. WT) (HIV-1 clonal variants; clone 6101-15: E92Q): 4.41 fold-change | Susceptibility (Fold-change vs. WT) (HIV-1 clonal variants; clone 6322-1: N155H, G163R): 15 fold-change | Susceptibility (Fold-change vs. WT) (HIV-1 clonal variants; clone 6322-11: N155H): 11 fold-change | Susceptibility (Fold-change vs. WT) (HIV-1 clonal variants; clone 6503-10: E92Q): 3.88 fold-change | Susceptibility (Fold-change vs. WT) (HIV-1 clonal variants; clone 6545-7: N155H): 15 fold-change | Susceptibility (Fold-change vs. WT) (HIV-1 clonal variants; clone 6648-7: E92Q): 4.20 fold-change | Susceptibility (Fold-change vs. WT) (HIV-1 clonal variants; clone 6648-10: E92Q): 4.20 fold-change | Susceptibility (Fold-change vs. WT) (HIV-1 clonal variants; clone 6648-11: E92Q): 3.97 fold-change | Susceptibility (Fold-change vs. WT) (HIV-1 clonal variants; clone 6667-1: E92Q): 5.09 fold-change | Susceptibility (Fold-change vs. WT) (HIV-1 clonal variants; clone 7299-11: Q148R, G140C): 24 fold-change | Susceptibility (Fold-change vs. WT) (HIV-1 clonal variants; clone 7332-10: None): 0.79 fold-change | Susceptibility (Fold-change vs. WT) (HIV-1 clonal variants; clone 7425-11: E92Q): 1.95 fold-change | Susceptibility (Fold-change vs. WT) (HIV-1 clonal variants; clone 7476-5: T66I, E157Q): 1.63 fold-change | Susceptibility (Fold-change vs. WT) (HIV-1 clonal variants; clone 7476-9: T66I, T97A, E157Q): 2.45 fold-change | Susceptibility (Fold-change vs. WT) (HIV-1 clonal variants; clone 7562-12: N155H): 13 fold-change | Frequency of Viral Breakthrough with RAMs (HIV-1 BaL): 58% | p24+ Wells (HIV-1 BaL): 12/12 | EC50 ([2]; Human immunodeficiency virus 1, HXB2, IN mutant E92Q): 38 ± 9 nM | EC50 ([2]; Human immunodeficiency virus 1, HXB2, IN mutant E92Q/N155H): 624 ± 213 nM | EC50 ([2]; Human immunodeficiency virus 1, HXB2, IN mutant E138K/Q148K): 1530 nM | EC50 ([2]; Human immunodeficiency virus 1, HXB2, IN mutant G140S/Q148R): 2460 nM | EC50 ([2]; Human immunodeficiency virus 1, HXB2, IN mutant M50I (BIC/DTG selection)): 7.4 ± 1.7 nM | EC50 ([2]; Human immunodeficiency virus 1, HXB2, IN mutant M50I/R263K (BIC selection)): 7.7 ± 2.1 nM | EC50 ([2]; Human immunodeficiency virus 1, HXB2, IN mutant M50I/S119R/R263K (DTG selection)): 19 ± 7 nM | EC50 ([2]; Human immunodeficiency virus 1, HXB2, IN mutant N155H): 188 ± 37 nM | EC50 ([2]; Human immunodeficiency virus 1, HXB2, IN mutant N155H/Q148R): 2180 nM | EC50 ([2]; Human immunodeficiency virus 1, HXB2, IN mutant Q148R): 427 ± 52 nM | EC50 ([2]; Human immunodeficiency virus 1, HXB2, IN mutant R263K (BIC/DTG selection), Table 7): 7.7 ± 1.2 nM | EC50 ([2]; Human immunodeficiency virus 1, HXB2, IN mutant R263K, Table 6): 10.4 ± 1.4 nM | EC50 ([2]; Human immunodeficiency virus 1, HXB2, IN mutant S119R (DTG selection)): 15 ± 5 nM | EC50 ([2]; Human immunodeficiency virus 1, HXB2, IN mutant S119R/R263K (DTG selection)): 12 ± 2 nM | EC50 ([2]; Human immunodeficiency virus 1, HXB2, IN mutant S153Y (DTG selection)): 15 ± 4 nM | EC50 ([2]; Human immunodeficiency virus 1, HXB2, IN mutant S153Y/R263K (DTG selection)): 22 ± 2 nM | EC50 ([2]; Human immunodeficiency virus 1, HXB2, IN mutant Y143R): 418 ± 151 nM | EC50 ([2]; Human immunodeficiency virus 1, HXB2, WT (HXB2), Table 6, read-out: EC50): 9.4 ± 1.4 nM | EC50 ([2]; Human immunodeficiency virus 1, HXB2, WT (HXB2), Table 7, read-out: EC50): 7.1 ± 1.1 nM | cross-resistance of BIC-selected variants ([2]; all BIC-selected variants): < 8 fold
